Laboratory results: US9968536B2, “Composition comprising isosorbide monoesters and isosorbide diesters” (Clariant International Ltd., priority 2011, dated 2018)

Experiment: Determination of the thickener performance in mixture A
Type: physicochemical
Settings: for Viscosity: 1% by weight added to mixture A (15% by weight in water, sodium laureth-2 sulfate:cocobetain 8:2), mixture A alone 135; for thickener performance (in words): 1% by weight in mixture A, summary of Table 1
Text: Using Genapol® LRO (sodium laureth-2 sulfate, 27% by weight in water) and Genagen® KB (cocobetain, 30% by weight in water) and additionally water, a 15% by weight mixture in water comprising the two surfactants in a weight ratio of 8:2 (hereinbelow referred to as “mixture A”) is obtained.

O[C@@H]1CO[C@H]2[C@@H]1OC[C@@H]2O [isosorbide]
Viscosity: 160 mPa · s | thickener performance (in words): not worth mentioning

isosorbide dicaprylate
Viscosity: 2390 mPa · s | thickener performance (in words): significant thickening
